Tested on: AZ21
Experiment: Biolayer interferometry, Ab59 binding to immobilized AZ21
Experimental: Binding kinetics between BCl-2 fusion protein Ab59 and AZ-21 was assayed by biolayer interferometry. […] Curves represent measured data points on an Octet RED384.

AZ21, sequence (P10415 1-207 C158A limits assumed): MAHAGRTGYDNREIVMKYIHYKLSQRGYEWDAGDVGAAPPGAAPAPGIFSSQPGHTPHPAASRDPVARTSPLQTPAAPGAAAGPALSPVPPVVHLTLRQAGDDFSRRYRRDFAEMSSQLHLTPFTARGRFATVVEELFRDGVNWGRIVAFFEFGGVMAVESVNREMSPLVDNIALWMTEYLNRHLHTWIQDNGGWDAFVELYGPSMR

Substance: Ab59: heterodimeric Fc fusion protein: BCl-2 C158A linked to a human IgG1 Fc, plus a second human IgG1 Fc domain
- binding to AZ21 in the presence of ABT-199 (with ABT-199, FIG. 25B): potent and reversible binding
- binding to AZ21 in the absence of ABT-199 (without ABT-199, FIG. 25B): no significant binding

— patent publication US20230046416A1 (Soteria Biotherapeutics, Inc., priority 2019, published 2023)
